# Laboratory results: ChEMBL document CHEMBL1131725, “Uridine phosphorylase inhibitors: chemical modification of benzyloxybenzyl-barbituric acid and its effects on urdpase inhibition” (Bioorg Med Chem Lett, 1999)
# Assay: Inhibitory effect on human liver uridine phosphorylase
row,Structure (SMILES),Ki [µM]
1,O=C1NC(=O)C(Cc2cccc(OCc3ccccc3)c2)C(=O)N1,2.3
2,O=C1NC(=O)C(Cc2ccccc2OCc2ccccc2)C(=O)N1,41.8
3,O=C1NC(=O)C(Cc2ccc(OCc3ccccc3)cc2)C(=O)N1,118
4,O=C1NC(=S)NC(=O)C1Cc1cccc(OCc2ccccc2)c1,3.7
